What was measured:
Assay type in all cases: cell-based, human
[1] = test system: MDA-MB231 breast cancer cells; test: Cytotoxicity and growth assay in MDA-MB231 breast cancer cells (SRB, TCA-precipitated protein); conditions: MDA-MB231; siRNA transfection
Description: An invasive, estrogen-independent breast cancer cell line that spontaneously expresses high levels of Notch-1 and -4, MDA-MB231, and normal human breast cells were used to investigate whether inhibition of Notch activation or expression affects the biological behavior of breast cancer cells. Human Mammary Epithelial Cells (HMEC) were purchased from Clonetics and cultured in mammary epithelial cell basal medium (MEBM) supplemented with 52 μg/ml Bovine Pituitary Extract […], […] human recombinant Epidermal Growth Factor (hEGF), 5 μg/ml insulin, 0.5 μg/ml Hydrocortisone, 50 μg/ml Gentamicin and 50 μg/ml Amphotericin-B. MDA-MB231 (ATCC, Rockville, Md.) were cultured in DMEM medium with 10% FBS. Notch expression in HMEC and MDA-MB231 cells was silenced using highly specific RNAi. Double-stranded synthetic 21-mer RNA oligonucleotides (siRNAs) were purchased from Dharmacon (Lafayette, Colo.). […] Sequence specificity was determined by BLAST searches which determined the uniqueness of the sequences. Transfection of siRNAs was performed using Oligofectamine (Invitrogen) as recommended by the siRNA manufacturer (Dharmacon). Transfection efficiency was optimized and followed on parallel wells using DNA double stranded oligos of identical sequence to the siRNAs, labeled with biotin on one strand. Transfected cells were identified by Streptavidin-horseradish peroxidase staining (Vectastain) and counted. Transfection efficiencies around 80% were routinely obtained.
Cytotoxicity and growth of transfected cells were estimated by a standard assay used for cancer drug screening, through the total amount of TCA-precipitated cell proteins after drug treatment (Likhitwitayawuid, K et al., 1993, J Nat Prod 56:30-38): 200 μl of cell suspension (10^5 cells/ml) were added to each well in a 96-well plate. After incubation at, 37° C., in 5% CO2 (30 minutes to 72 hours depending on the time course chosen), 50 μl 50% trichloroacetic acid was added to each well. After incubation at 4° C. for 1 hour, precipitates were washed with water 4-5 times and air dried overnight. One hundred μl of SRB solution (0.4% sulforhodamine B in 1% acetic acid, filtered before use) was added to each well for 30 minutes. Wells were washed with 1% acetic acid 4-5 times and air dried. Two hundred μl 10 mM Tris base was added to each well. Plates were shaken for 5-10 minutes and OD at 490 nm (OD490) was recorded via ELISA reader. To assay matrix invasion, 300 μl of cell suspension (10^6 cells/mL in serum-free medium) were added to invasion inserts (BioCoat Matrigel Invasion Chambers, Becton Dickinson, Bedford, Mass.) and incubated for 22 hours at 37° C., 5% CO2. […] After removal of the non-invading cells from the interior of the inserts, stained invading cells were lysed in 10% acetic acid and OD595 was determined. […]

[2] = test system: MDA-MB231 cells; test: Cell cycle distribution of MDA-MB231 cells by flow cytometry; conditions: siRNA transfection
Description: Cell cycle analysis was performed to further study the effects of inhibition of Notch signaling in breast cancer cells. MDA-MB231 cells were treated overnight with 0-10 μM z-Leu-Leu-Nle-CHO prior to cell cycle distribution analysis by flow cytometry. Alternatively, MDA-MB231 cells were transfected with Notch-1, Notch-4 or control siRNA as described above in Example 15. For cell cycle distribution analysis by flow cytometry, z-Leu-Leu-Nle-CHO- or siRNA-treated cells (10^6) were pelleted and washed twice in PBS. Cells were then fixed in 80% methanol and stored at −20° C. until use. Fixed cells were pelleted and washed twice in PBS, and resuspended in 50 μl PI:PBS solution (50 μg/ml PI). After RNase A (100 μg/ml) treatment at 37° C. for an hour, cells were analyzed by flow cytometry using a FACScalibur instrument.

[3] = test system: MDA-MB231 breast cancer cells; test: Extracellular matrix invasion of MDA-MB231 cells (Matrigel Invasion Chambers); conditions: siRNA transfection, 22 hours
Description: Cytotoxicity and growth of transfected cells were estimated by a standard assay used for cancer drug screening, through the total amount of TCA-precipitated cell proteins after drug treatment (Likhitwitayawuid, K et al., 1993, J Nat Prod 56:30-38): 200 μl of cell suspension (10^5 cells/ml) were added to each well in a 96-well plate. After incubation at, 37° C., in 5% CO2 (30 minutes to 72 hours depending on the time course chosen), 50 μl 50% trichloroacetic acid was added to each well. After incubation at 4° C. for 1 hour, precipitates were washed with water 4-5 times and air dried overnight. One hundred μl of SRB solution (0.4% sulforhodamine B in 1% acetic acid, filtered before use) was added to each well for 30 minutes. Wells were washed with 1% acetic acid 4-5 times and air dried. Two hundred μl 10 mM Tris base was added to each well. Plates were shaken for 5-10 minutes and OD at 490 nm (OD490) was recorded via ELISA reader. To assay matrix invasion, 300 μl of cell suspension (10^6 cells/mL in serum-free medium) were added to invasion inserts (BioCoat Matrigel Invasion Chambers, Becton Dickinson, Bedford, Mass.) and incubated for 22 hours at 37° C., 5% CO2. Cells were stained with 0.9% crystal violet in 10% ethanol for 20 minutes. Inserts were dipped in water several times and air dried. After removal of the non-invading cells from the interior of the inserts, stained invading cells were lysed in 10% acetic acid and OD595 was determined.
Notch silencing was confirmed by Western blot as described above in Example 15 using commercial goat polyclonal antibodies from Santa Cruz Biotechnology to Notch-1 (C-20, Cat# sc-6014 S). For the Western blot analyses, MDA-MB231 cells were treated with 25 μM IL-X for 48 h or with 0.5, 1 or 2 μM z-Leu-Leu-Nle-CHO for 24 h. Cytotoxicity and matrix invasion assays were performed as described above in Example 15. For the cytotoxicity assays, MDA-MB231 cells were treated with […] IL-X for up to 3 days or with 0-20 μM z-Leu-Leu-Nle-CHO for up to 4 days. […]

[4] = test system: NOXA; test: NOXA antisense oligonucleotide pretreatment before proteasome inhibitors in melanoma cell lines; conditions: MG-132, lactacystin or bortezomib; three melanoma cell lines; 24 hrs
Excerpt: To more definitively establish a role for NOXA in the proteasome inhibitor-induced apoptotic response, three different melanoma cell lines were pre-treated with an antisense oligonucleotides (ASO). The ASOs included a NOXA targeted sequence (5′-TCAGTCTACTGATTTACTGG-3′) (SEQ ID NO: 2) and a universal scrambled control oligonucleotide (5′-TTCTACCTCGCGCGATTTAC-3′) (SEQ ID NO: 4) (FIGS. 10A, 10B and 10C), or control oligonucleotide (CO) (5′-CCTTCCCTGAAGGTTCCTCC-3′) (SEQ ID NO: 3) (FIGS. 6B and 6D). All three ASO were provided by ISIS Pharmaceuticals Inc. (Carlsbad, Calif.) as previously described by Qin et al., 2004, Mol Cancer Ther. 3:895-902). Melanoma cells were seeded at 2×10^5 cells into 6 well plates 1 day before transfection. Opti-MEM (InVitrogen) was pre-incubated for 30 minutes at room temperature using a ratio of 3 μM/mL lipofectamine per 100 nmol/L to produce a final oligonucleotide concentration of […]. Cells were washed with PBS and transfection mix (1 ml) was added. […] The treated cells were analyzed for cell viability using APO TARGET Annexin V-FITC staining kits (Biosource) and by Western blot using NOXA and β-actin antibodies as described above.

[5] = test system: NOXA; test: NOXA antisense oligonucleotide in z-Leu-Leu-Nle-CHO-treated melanoma cells (Western blot, sub-G0 DNA content); conditions: RJ002L
Excerpt: The role of NOXA in z-Leu-Leu-Nle-CHO-mediated apoptosis of melanoma cells was further evaluated using RJ002L, C8161 and MUM2B melanoma cell lines containing antisense oligonucleotide targeting NOXA. The antisense oligonucleotides (ASO) included a NOXA targeted sequence (5′-TCAGTCTACTGATTTACTGG-3′) (SEQ ID NO: 2) and a control oligonucleotide (CO) (5′-CCTTCCCTGAAGGTTCCTCC-3′) (SEQ ID NO: 3). The ASO were purchased from ISIS Pharmaceuticals Inc. (Carlsbad, Calif.) as previously described by Qin J et al., 2004, Mol Cancer Ther 3:895-902. Melanoma cells were seeded at 2×10^5 cells into 6 well plates I day before transfection. Opti-MEM (InVitrogen) was pre-incubated for 30 minutes at room temperature using a ratio of 3 μM/mL lipofectamine per 100 nmol/L to produce a final oligonucleotide concentration of 50 nmol/L. Cells were washed with PBS and transfection mix (1 ml) was added. After 4 hrs of incubation, RPMI 1640 (1 mL) containing 20% fetal bovine serum and z-Leu-Leu-Nle-CHO (10 μM) was added to the cells and the cells were incubated for 24 hrs. The treated cells were analyzed for cell viability using APO TARGET Annexin V-FITC staining kits (Biosource), for cell cycle progression and by Western blot using NOXA, Bim, Bak and β-actin antibodies as described above.

[6] = test system: CaSki cells; test: LY411,575 combinations in CaSki cells, growth inhibition and isobologram analysis; conditions: in vitro
Description: To evaluate the possibility that inhibition of Notch signaling may sensitize advanced cervical cancers to the effect of cisplatin chemotherapy because Notch-1 protects these cells from apoptosis through the AKT and NF-κB pathways, a non-peptide, benzodiazepine gamma-secretase inhibitor, LY411,575 (Wong et al., 2004, J Biol. Chem. 279:12876-82) was tested in combination with a AKT inhibitor (AKT inhibitor I) or a proteasome inhibitor (MG-132) for effects on cell growth. The latter class of drugs is thought to act primarily by preventing NF-KB activation (Adams, J, 2002, Curr Opin Oncol 14:628-634; Richardson, P, 2003, Cancer Treat Rev 29 Suppl 1:33-39) caused by proteasome-mediated degradation of IκB.
To determine whether LY411,575 potentiates the effect of AKT inhibitor I or MG-132, CaSki cells were treated with (a) LY411,575 (6.25 μM to 50 μM) and AKT inhibitor 1 (0.5 μM to 75 μM), or (b) LY411,575 (1.5 μM to 200 μM) and MG-132 (0.05 μM to 0.2). Following the drug treatment, the cells were tested for growth inhibition as described above. LY411,575 was synthesized according to methods well known in the art (e.g., see WO-09828268, which is incorporated by reference), and AKT inhibitor I and MG-132 were purchased from Calbiochem.
The IC50 values of LY411,575 in the presence of various concentrations of AKT inhibitor I or MG-132 were measured. […]

5′-AACCCTGTGCCAATGGAGGCA-3′ [Notch-4 siRNA]
proliferation [1]: even stronger anti-proliferative effect in MDA-MB231 cells than Notch-1 silencing | cell cycle distribution [2]: accumulation of cells in G2/M was maximal at 24 hours | extracellular matrix invasion [3]: significantly inhibited extracellular matrix invasion

5′-TCAGTCTACTGATTTACTGG-3′ (antisense TCAGTCTACTGATTTACTGG; listed as DNA, chemistry not given here) [NOXA ASO]
reduction of proteasome inhibitor-induced apoptotic response [4]: 30-50% | effect on z-Leu-Leu-Nle-CHO mediated apoptosis (sub-G0 DNA content) ([5]; C8161, MUM2B, p<0.01 versus control oligonucleotide): significantly reduced z-Leu-Leu-Nle-CHO mediated apoptosis | effect on z-Leu-Leu-Nle-CHO induction of NOXA, Bim, Bak ([5]; 50 nmol/L oligonucleotide): blocked induction of NOXA, but not Bim or Bak

C[C@H](NC(=O)[C@@H](O)c1cc(F)cc(F)c1)C(=O)N[C@@H]1C(=O)N(C)c2ccccc2-c2ccccc21 [LY411,575]
potency relative to z-Leu-Leu-Nle-CHO [6]: less potent than z-Leu-Leu-Nle-CHO in vitro

Source: patent US20080220416A1, “Compositions for Inhibiting Cell Growth and Inducing Apoptosis in Cancer Cells and Methods of Use Thereof” (THE BOARD OF TRUSTEES OF THE UNIVERSITY OF ILLINOI, priority 2004, published 2008)
